Experiments:
Assay type in all cases: physicochemical
[1] = Determination of the solubilization temperature (T_sol), shallow heating ramp to 100% transparency
Method: (§1) Solid 2-(dodecylsulfonyl)octan-4-one was mixed with different solvents and transferred to a 8 mL vial equipped with an overhead stirrer. The sample was placed in a Crystalline PV instrument (Technobis, The Netherlands). Heating and cooling steps were applied under mechanical stirring, and the samples were monitored by following transparency via a LED light beam that passes through the vial. Full (100%) transparency is attained when 2-(dodecylsulfonyl)octan-4-one is completely dissolved in the solvent. On the other hand, when the measured values of transparency are below 100% the dissolution process is still incomplete.
(§2) A first heating step was carried out by quickly (+5° C./min) heating the sample above its solubility temperature to 60° C. After complete dissolution, a cooling ramp to 1° C. was applied (−2° C./min), i.e. below the solubility temperature of the sample, where the sample was kept stirring until 2-(dodecylsulfonyl)octan-4-one has crystallized. Subsequently a second heating step was carried out by applying a shallow heating ramp (+0.1° C./min) in order to dissolve the material under quasi-isothermal conditions. The transparency of the sample was monitored as a function of time during the heating ramp. Once the signal has attained 100% transparency, the dissolution process was complete and the respective temperature was taken as the solubilization temperature (T_sol).
Following the methodology described above, 2-(dodecylsulfonyl)octan-4-one was mixed with various solvents/liquid carriers that are suitable for perfumery compositions or with perfumery raw materials at a concentration of 5 wt. % and the solubilization temperature has been determined. The solvents and perfumery raw materials used and the respective solubilization temperatures are depicted in Tables 1-3 below. […]

[2] = Solubility measurements by light transparency (Crystalline PV instrument) on heating to 60° C. and cooling
Method: as §1, §2
Following the methodology described above, 2-(dodecylsulfonyl)octan-4-one was mixed with various solvents/liquid carriers that are suitable for perfumery compositions or with perfumery raw materials at a concentration of 5 wt. % and the solubilization temperature has been determined. The solvents and perfumery raw materials used and the respective solubilization temperatures are depicted in Tables 1-3 below.

[3] = Solubility at 25° C. from exponential fit of temperature-solubility curves; settings: from extrapolation of temperature-solubility curves
Method: The solubility of 2-(dodecylsulfonyl)octan-4-one at 25° C. in various solvents or perfumery raw materials has been determined based on the data presented in Table 9. For each solvent or perfumery raw material, the measured solubility as a function of temperature has been fitted to an exponential function. The solubility at 25° C. has been obtained by extrapolation or interpolation of this exponential function. The results/exponential curves are shown in the Figure (black triangle: DIPG, grey squares: IPM, open diamonds: Hedione®, black circles: gamma-nonalactone and Cetiol® Ultimate (80/20); the continuous lines represent exponential functions fit to the experimental data).

[4] = 5 wt. % in Dimethylglutarate (DBE-5)
[5] = 5 wt. % in Dipropylene glycol (DIPG)
[6] = 5 wt. % in Fragrance composition F1
[7] = 5 wt. % in Fragrance composition F2
[8] = 5 wt. % in Fragrance composition F3
[9] = 5 wt. % in Fragrance composition F4
[10] = 5 wt. % in Fragrance composition F5
[11] = 5 wt. % in Isopropyl myristate (IPM)
[12] = 5 wt. % in gamma-Nonalactone/Cetiol ® Ultimate (80/20; w/w)
[13] = 5 wt. % in gamma-Valerolactone/Isopropyl Myristate (IPM) (70/30 w/w)

- T_sol ([1]; 5 wt. % in Cetiol ® Ultimate): 45.4 °C
- T_sol [1, 4]: 27.3 °C
- T_sol [1, 5]: 44.6 °C
- T_sol ([1]; 5 wt. % in Ethyl lactate): 26.5 °C
- T_sol [1, 6]: 21.1 °C
- T_sol [1, 7]: 19.8 °C
- T_sol [1, 8]: 17.8 °C
- T_sol [1, 9]: 24.0 °C
- T_sol [1, 10]: 16.3 °C
- T_sol ([1]; 5 wt. % in Hedione ®): 21.0 °C
- T_sol [1, 11]: 33.5 °C
- T_sol ([1]; 5 wt. % in Triacetine): 41.1 °C
- T_sol ([1]; 5 wt. % in Triethyl citrate): 36.2 °C
- T_sol ([1]; 5 wt. % in gamma-Decalactone): 14.6 °C
- T_sol [1, 12]: 10.5 °C
- T_sol ([1]; 5 wt. % in gamma-Undecalactone): 15.3 °C
- T_sol ([1]; 5 wt. % in gamma-Valerolactone): 23.0 °C
- T_sol [1, 13]: 15.3 °C
- Soluble after cooling to 25° C. ([2]; 5 wt. % in Cetiol ® Ultimate): not capable of fully dissolving and no
- Soluble at 60° C. ([2]; 5 wt. % in Cetiol ® Ultimate): yes
- Soluble after cooling to 25° C. [2, 4]: not capable of fully dissolving and no
- Soluble at 60° C. [2, 4]: yes
- Soluble after cooling to 25° C. [2, 5]: not capable of fully dissolving and no
- Soluble at 60° C. [2, 5]: yes
- Soluble after cooling to 25° C. ([2]; 5 wt. % in Ethyl lactate): not capable of fully dissolving and no
- Soluble at 60° C. ([2]; 5 wt. % in Ethyl lactate): yes
- Soluble after cooling to 25° C. [2, 6]: yes
- Soluble at 60° C. [2, 6]: yes
- Soluble after cooling to 25° C. [2, 7]: yes
- Soluble at 60° C. [2, 7]: yes
- Soluble after cooling to 25° C. [2, 8]: yes
- Soluble at 60° C. [2, 8]: yes
- Soluble after cooling to 25° C. [2, 9]: yes
- Soluble at 60° C. [2, 9]: yes
- Soluble after cooling to 25° C. [2, 10]: yes
- Soluble at 60° C. [2, 10]: yes
- Soluble after cooling to 25° C. ([2]; 5 wt. % in Hedione ®): yes
- Soluble at 60° C. ([2]; 5 wt. % in Hedione ®): yes
- Soluble after cooling to 25° C. [2, 11]: not capable of fully dissolving and no
- Soluble at 60° C. [2, 11]: yes
- Soluble after cooling to 25° C. ([2]; 5 wt. % in Triacetine): not capable of fully dissolving and no
- Soluble at 60° C. ([2]; 5 wt. % in Triacetine): yes
- Soluble after cooling to 25° C. ([2]; 5 wt. % in Triethyl citrate): not capable of fully dissolving and no
- Soluble at 60° C. ([2]; 5 wt. % in Triethyl citrate): yes
- Soluble after cooling to 25° C. ([2]; 5 wt. % in gamma-Decalactone): yes
- Soluble at 60° C. ([2]; 5 wt. % in gamma-Decalactone): yes
- Soluble after cooling to 25° C. [2, 12]: yes
- Soluble at 60° C. [2, 12]: yes
- Soluble after cooling to 25° C. ([2]; 5 wt. % in gamma-Undecalactone): yes
- Soluble at 60° C. ([2]; 5 wt. % in gamma-Undecalactone): yes
- Soluble after cooling to 25° C. ([2]; 5 wt. % in gamma-Valerolactone): yes
- Soluble at 60° C. ([2]; 5 wt. % in gamma-Valerolactone): yes
- Soluble after cooling to 25° C. [2, 13]: yes
- Soluble at 60° C. [2, 13]: yes
- Solubility of 2-(dodecylsulfonyl)octan-4-one at 25° C. ([3]; in gamma-Valerolactone/IPM (70:30 w/w)): 11.3 wt. %
- Solubility of 2-(dodecylsulfonyl)octan-4-one at 25° C. ([3]; in gamma-Valerolactone): 5.5 wt. %
SMILES: CCCCCCCCCCCCS(=O)(=O)C(C)CC(=O)CCCC (centres unmarked) [2-(dodecylsulfonyl)octan-4-one]

Source: patent US20260102324A1, “PERFUMING COMPOSITIONS COMPRISING A 2-(ALKYLSULFONYL)OCTAN-4-ONE” (FIRMENICH SA, priority 2022, published 2026)
